Experiments:
[1] = tested on: E0771-OVA Tap1/2 KD cells; assay: E0771-OVA Tap1/2 KD cells / OT-I splenocyte co-culture; assay type: cell-based, mouse
From the text: For FIGS. 33B-33D, E0771-OVA cells with (shTap1/2) or without (shCtrl) Tap1/2 knockdown were co-cultured with OT-I splenocytes with the ratio of 1:10 (tumor cells:splenocytes). Data represent mean±SEM. n=3 independent experiments. Significance determined by one-way ANOVA analysis with Sidak's test for multiple comparisons.
FIG. 33B, 24 hr after co-culture, tumor cells were collected for examining OVA (H-2K^b-SIINFEKL) expression.
FIG. 33C, 24 hr after co-culture, tumor cells were collected for examining MHC-I expression.
FIG. 33D, 24 hr after co-culture, splenocytes were collected for examining CD137 expression.
FIG. 33E, The same co-culture experiment as in FIG. 33B were performed. The live tumor cells were indicated by luciferase signal. The percentage of live cells were determined as normalized to the non-co-culture control. Data represent mean±SEM. n=5 independent experiments. Significance determined by one-way ANOVA analysis with Sidak's test for multiple comparisons.
MTDH-SND1 suppresses antigen presentation by reducing Tap1/2. To confirm that MTDH-SND1 drives immune evasion through suppressing the Tap1/2 pathway, antigen presentation-deficient cells were generated by knocking down Tap1/2^20. E0771-OVA cells were transduced with lentiviruses expressing Tap1/2-targeting shRNAs. […]

[2] = tested on: Py8119-OVA cells co-cultured with OT-I splenocytes; assay: Py8119-OVA tumor cell / OT-I splenocyte co-culture; assay type: cell-based, mouse; settings: 200 μM
Protocol: FIG. 22C, Py8119-OVA cells co-cultured with OT-I splenocytes were treated with 200 μM of C26-A6 or same amount of vehicle. The binding between MTDH and Tap1/2 in tumor cells were determined by RIP assay.
FIG. 22D, Tap1/2 RNAs that bind to MTDH in (c) were quantified and normalized to the pulled down MTDH levels.
FIG. 22E, Tap1/2 levels in Py8119-OVA cells with/without 200 μM of C26-A6 treatment during co-culture were examined by qRT-PCR.
FIG. 22F, OVA (H-2K^b-SIINFEKL) presentation in Py8119-OVA cells with/without 200 μM of C26-A6 treatment in co-culture were determined by flow cytometry. MFI, Mean Fluorescence Intensity; AU, arbitrary units.
FIG. 22G, Media in (E) was collected for IFN-γ ELISA and cytotoxicity assay. AU, arbitrary units.
FIG. 32B, Py8119-OVA cells co-cultured with OT-I splenocytes were treated with 200 μM of C26-A6 or same amount of vehicle. The binding between SND1 and Tap1/2 in tumor cells were determined by RIP assay.
FIG. 32C, Tap1/2 RNAs that bind to SND1 were quantified and normalized to the pulled down SND1 levels.
FIG. 32D, MHC-I presentation in Py8119-OVA cells with/without 200 μM of C26-A6 treatment in co-culture were determined by flow cytometry. MFI, mean fluorescence intensity; AU, arbitrary units.
FIGS. 32E, The expression of CD137 in splenocytes co-cultured with Py8119-OVA was determined by flow cytometry upon 200 μM of C26-A6 or vehicle treatment.
FIGS. 32F, The expression of IFN-γ in splenocytes co-cultured with Py8119-OVA were determined by flow cytometry upon 200 μM of C26-A6 or vehicle treatment.
Immune cell and tumor cell co-culture assay. Py8119-OVA tumor cells with various MTDH expression status were plated in 6-well plates for in vitro co-culture in DMEM/F12 media listed above. Once cells reached 50-75% confluency OT-I splenocytes or CD8^+ T cells were added to the tumor cells at the 1:10 ratio (tumor cell. immune cell). After 24 hr of co-culture, the cells and culture media were collected for further experiments.
RNA-Binding immunoprecipitation (RIP) and western blot (WB). Py8119-OVA tumor cells after co-culture for 24 hr were collected for RIP using RNA-Binding Protein Immunoprecipitation Kit (Millipore, #17-700). Briefly, 5×10^7 tumor cells were resuspended with 200 μL of RIP lysis buffer and frozen at −80° C. for at least 1 hr to lyse the cells. The sample was then centrifuged at 14,000 rpm for 10 min at 4° C. 20 μL of supernatant was transferred to two new tubes with 10 μL each and frozen at −80° C. to serve as input of total. The rest of the supernatant was diluted with 1.8 ml of RIP immunoprecipitation buffer and split equally into two 1.5 ml EP tubes. 5 μg of MTDH (Invitrogen, catalogue #40-6500), SND1 (Santa Cruz, catalogue #sc-271590) or IgG (provided in the Kit) antibody was added into each tube and incubated at 4° C. overnight. The next day, 50 μL of magnetic beads was added and incubated for another 2 hr. The beads were then washed with 500 μL of RIP wash buffer on a magnetic separator for 5 times. During the final wash, 25 μL of the beads in the wash buffer was transferred into a new tube, stored at −80° C. to serve as input of IP. The rest of the beads together and 10 μL input of total were resuspended with 300 μL of proteinase K buffer respectively and incubated at 55° C. for 30 min to degrade proteins. RNA was extracted with phenol:chloroform:isoamyl alcohol and precipitated with 100 μL of Salt Solution I, 30 μL of Salt Solution II, and 10 μL of Precipitation Enhancer at −80° C. overnight. […]

Compound: COc1ccc(Cl)cc1S(=O)(=O)Nc1cccn2nc(C)nc12 [Analog C26-A6]
- immune killing (live tumor cells) [1]: no boosting of immune killing
- antigen presentation and T cell activation ([1]; 24 hr co-culture): no such change
- OVA antigen and MHC-I complex presentation (flow cytometry) [2]: promotes OVA antigen and MHC-I complex presentation
- T cell activation (CD137, IFN-γ) [2]: promotes
- Tap1/2 binding of MTDH and SND1 (RIP assay) [2]: decreased the Tap1/2 binding of MTDH and SND1
- Tap1/2 mRNA expression level (qRT-PCR) [2]: increased the expression level of these mRNAs
- immune clearance of tumor cells (cytotoxicity assay) [2]: sensitizes the tumor cells to immune clearance

From patent publication US20240398767A1, “INHIBITORS OF THE MTDH-SND1 PROTEIN COMPLEX FOR CANCER THERAPY” (The Trustees of Princeton University, priority 2021, published 2024)
